Key:
Assay type in all cases: in vivo
[1] = tested on: HORVW (Hordeum vulgare—barley); experiment: B1 glasshouse post-emergence herbicidal activity, barley; details: after 14 days, 100=total damage, 0=no damage
Description: (§1) Seeds of a variety of test species HORVW (Hordeum vulgare—barley), ABUTH (Abutilon theophrasti), AMARE (Amaranthus retroflexus) and ECHCG (Echinochloa crus-galli) were sown in standard soil in pots. After cultivation for 10 days cultivation under controlled conditions in a glasshouse (at 24/16° C., day/night; 14 hours light; 65% humidity), the plants were sprayed with an aqueous spray solution derived from the formulation of the technical active ingredient in 0.6 ml acetone and 45 ml formulation solution containing 10.6% Emulsogen EL (Registry number 61791-12-6), 42.2% N-methyl pyrrolidone, 42.2% dipropylene glycol monomethyl ether (CAS RN 34590-94-8) and 0.2% X-77 (CAS RN 11097-66-8).
(§2) The test plants were then grown in a glasshouse under controlled conditions in a glasshouse (at 24/16° C., day/night; 14 hours light; 65% humidity) and watered twice daily. After 14 days, the test was evaluated (100=total damage to plant; 0=no damage to plant).

[2] = tested on: AMARE (Amaranthus retroflexus); experiment: B1 glasshouse post-emergence herbicidal activity, AMARE; details: after 14 days, 100=total damage, 0=no damage
Description: as §1, §2

[3] = tested on: ABUTH (Abutilon theophrasti); experiment: B1 glasshouse post-emergence herbicidal activity, ABUTH; details: after 14 days, 100=total damage, 0=no damage
Description: as §1, §2

[4] = tested on: ECHCG (Echinochloa crus-galli); experiment: B1 glasshouse post-emergence herbicidal activity, ECHCG; details: after 14 days, 100=total damage, 0=no damage
Description: as §1, §2

[5] = tested on: Euphorbia heterophylla (EPPHL); experiment: B2 drilled field trial Brazil, post-emergence, EPPHL; details: 100 g ai/ha, 100=total damage, 0=no damage
Description: (§3) Seeds of a variety of test species were used in drilled field trials to look at the control of important weed species present in corn crops as well as the effect on soybean (a volunteer crop in corn). Trials were carried out in Brazil in the summer season.
(§4) Plot size was 10-12 m^2, and two replicates were carried out per treatment. Plants were treated post-emergence at the 4 leaf stage. Fungicides and insecticides were used as necessary for plant health. The test was evaluated at 7 and 30 days after application (Amaranthus viridis (AMAVI), Bidens pilosa (BIDPI), Euphorbia heterophylla (EPPHL)) and 9 and 37 days after application (Brachiaria plantaginea (BRAPL) and soybean (Glycine max GLXMA) with 100=total damage to plant and 0=no damage to plant.
(§5) Expected results were calculated using the Colby Formula.

[6] = tested on: Brachiaria plantaginea (BRAPL); experiment: B2 drilled field trial Brazil, post-emergence, BRAPL; details: 100 g ai/ha, 100=total damage, 0=no damage
Description: as §3, §4, §5

[7] = tested on: soybean (Glycine max GLXMA); experiment: B2 drilled field trial Brazil, post-emergence, soybean; details: 100 g ai/ha, 100=total damage, 0=no damage
Description: as §3, §4, §5

Bidens pilosa (BIDPI) = experiment: B2 drilled field trial Brazil, post-emergence, BIDPI; details: 100 g ai/ha, 100=total damage, 0=no damage
Description: as §3, §4, §5

[8] = tested on: Amaranthus viridis (AMAVI); experiment: B2 drilled field trial Brazil, post-emergence, AMAVI; details: 100 g ai/ha, 100=total damage, 0=no damage
Description: as §3, §4, §5

Row | Structure (SMILES) | HORVW ([1]; Rate 125 g/ha) | HORVW ([1]; Rate 250 g/ha) | AMARE ([2]; Rate 125 g/ha) | AMARE ([2]; Rate 250 g/ha) | ABUTH ([3]; Rate 125 g/ha) | ABUTH ([3]; Rate 250 g/ha) | ECHCG ([4]; Rate 125 g/ha) | ECHCG ([4]; Rate 250 g/ha) | EPPHL 7DAA Observed ([5]; 7 days after application) | EPPHL 30 DAA Observed ([5]; 30 days after application) | BRAPL 9DAA Observed ([6]; 9 days after application) | BRAPL 37 DAA Observed ([6]; 37 days after application) | GLXMA 9DAA Observed ([7]; 9 days after application) | GLXMA 37 DAA Observed ([7]; 37 days after application) | BIDPI 7DAA Observed (Bidens pilosa (BIDPI); 7 days after application) | BIDPI 30 DAA Observed (Bidens pilosa (BIDPI); 30 days after application) | AMAVI 7DAA Observed ([8]; 7 days after application) | AMAVI 30 DAA Observed ([8]; 30 days after application)
1 | COc1ccc(-n2nc(C)cc(C(=O)C3C(=O)C4CCC(C4)C3=O)c2=O)cc1OC (stereo not drawn) [Compound 2.1, 3-[2-(3,4-dimethoxyphenyl)-6-methyl-3-oxo-pyridazine-4-carbonyl]bicyclo[3.2.1]octane-2,4-dione] | 0 | 0 | 100 | 100 | 100 | 100 | 100 | 100 |  |  |  |  |  |  |  |  |  | 
2 | COc1ccc(-n2nc(C)cc(C(=O)C3C(=O)CC(C)CC3=O)c2=O)cc1OC (stereo not drawn) [Compound 2.2] | 0 | 0 | 100 | 100 | 100 | 100 | 100 | 100 |  |  |  |  |  |  |  |  |  | 
3 | COc1ccc(-n2nc(C)cc(C(=O)C3C(=O)CC(C)(C)CC3=O)c2=O)cc1OC [Compound 2.4] | 0 | 10 | 100 | 100 | 100 | 100 | 100 | 100 |  |  |  |  |  |  |  |  |  | 
4 | COc1ccc(-n2nc(C)cc(C(=O)C3C(=O)CCCC3=O)c2=O)cc1OC [Compound 2.3, 2-[2-(3,4-Dimethoxyphenyl)-6-methyl-3-oxo-pyridazine-4-carbonyl]cyclohexane-1,3-dione] | 0 | 0 | 100 | 100 | 100 | 100 | 100 | 100 | 58 | 42 | 78 | 37 | 55 | 100 | 45 | 43 | 65 | 70
5 | COc1ccc(-n2nc(C3CC3)cc(C(=O)C3C(=O)C(C)(C)C(=O)C(C)(C)C3=O)c2=O)cc1OC [Compound 2.11, 6-[6-cyclopropyl-2-(3,4-dimethoxyphenyl)-3-oxo-pyridazine-4-carbonyl]-2,2,4,4-tetramethyl-cyclohexane-1,3,5-trione] | 0 | 0 | 100 | 100 | 100 | 100 | 100 | 100 |  |  |  |  |  |  |  |  |  | 
6 | COc1ccc(-n2nc(C)cc(C(=O)C3C(=O)C(C)(C)C(=O)C(C)(C)C3=O)c2=O)cc1OC [Compound 2.5] | 0 | 0 | 100 | 100 | 100 | 100 | 90 | 90 |  |  |  |  |  |  |  |  |  | 
7 | COc1ccc(-n2nc(C3CC3)cc(C(=O)C3C(=O)C4CCC(C4)C3=O)c2=O)cc1OC (stereo not drawn) [Compound 2.9] | 0 | 10 | 90 | 100 | 100 | 100 | 100 | 100 |  |  |  |  |  |  |  |  |  | 
